Values quoted from earlier work, collected in patent US20090318526A1, “Use of cannabinoid receptor agonists as hypothermia inducing drugs for the treatment of ischemia” (priority 2006, published 2009).

System: Sprague-Dawley rats
Conditions: Leker et al. [37]

SMILES: CCCCCCC(C)(C)c1cc(O)c2c(c1)OC(C)(C)[C@@H]1CC=C(CO)C[C@@H]21 [HU-210, (−)-11-OH-delta-8-tetrahydrocannabinoldimethylheptyl]
- induction of hypothermia (Sprague-Dawley rats): did provide hypothermia
- protection against ischemic damages (Sprague-Dawley rats): protection against ischemic damages
- side effects due to the treatment (rats): hemodynamic and behavioural side effects
